This is an account of results in paper PMC7822874, “Chemoprotective antimalarials identified through quantitative high-throughput screening of Plasmodium blood and liver stage parasites” (Scientific Reports, 2021).

For the experiment, the system named is Plasmodium falciparum Dd2 asexual blood stage parasites. The experiment can be described thus: microbe, parasite or virus in culture. Further details: species or system Plasmodium falciparum Dd2 in human erythrocytes; single determination (one 11-point concentration-response curve). Particulars: Plasmodium falciparum, DD2, Erythrocyte, 72 h; read-out: AC50.

Consider `Cc1cc(N(C)Cc2ccccc2)nc2cc(O)ccc12` [MLS001199318-01], for which the half-maximal activity concentration (AC50) is 2.37 µM.

As for `CC(Oc1ccc(F)cc1)C(=O)Nc1cc(C(F)(F)F)ccc1-n1cncn1` (centres unmarked) [MLS001160637-01], the AC50 was found to be 1.68 µM.

Take `Cc1cc(Nc2cc(Cl)cc(Cl)c2)nc(N)n1` [MLS000861564-01]: the AC50 turned out to be 6.68 µM.

As for `COc1cccc(-c2nn3c(=O)cc(CN4CCN([S+](=O)([O-])c5ccc(C)cc5)CC4)nc3s2)c1` [NCGC00134088-01], the AC50 came out at 8.41 µM.

Consider `CC1(c2ccccc2)O[C@@H]2C[C@H]3[C@@H]4CCC5=CC(=O)C=C[C@]5(C)[C@@]4(F)[C@@H](O)C[C@]3(C)[C@]2(C(=O)CO)O1` (some centres unmarked) [MLS000738166-01], for which the AC50 worked out at 4.73 µM.

With `CCOC(=O)N1CCc2c(sc3c2c(=O)n(-c2ccccc2C(F)(F)F)c(=O)n3Cc2ccccc2C)C1` [NCGC00111905-01], the concentration at half-maximal activity (AC50) was 13.3 µM.

Regarding `Cc1ccc(CN2CCC(CNC(=O)c3cnn(-c4ccc(C)cc4)c3C3CCN(C(=O)OC(C)(C)C)CC3)CC2)cc1` [NCGC00126945-01], the AC50 was determined as 8.41 µM.

Consider `O=C1c2cc(N3CCOCC3)nc(-c3ccccc3)c2CN1Cc1ccccc1` [NCGC00419273-01], for which the AC50 came out at 21.7 µM.

Take `Cn1nc(C2CCCCC2)cc1[C@H]1CN2CC[C@H]1C[C@@H]2CNC(=O)COc1ccccc1` [NCGC00399666-01]: the AC50 was found to be 15 µM.

As for `COc1ccccc1-c1ccc2ncc(Nc3ccc4[nH]ccc4c3)n2n1` [NCGC00412550-01], the AC50 worked out at 4.33 µM.

In the case of `CC(C)(C)c1ccc(CN(Cc2ccccc2)C(c2ccccn2)c2nnnn2C(C)(C)C)cc1` (centres unmarked) [MLS000529130-01], the half-maximal activity concentration (AC50) worked out at 4.73 µM.

Regarding `CNc1cc(C)nc(-n2nc(C)cc2C)n1` [MLS000079642-01], the AC50 was 8.41 µM.

Consider `CCCCc1cc(=O)oc2cc(C)cc(OCC(=O)Nc3cccnc3)c12` [MLS001160046-01], for which the AC50 turned out to be 0.596 µM.

On to `O=C(NCCc1cccnc1)c1ccc(-c2nnc3ccc(NC(=O)C4CCC4)cn23)cc1` [NCGC00429899-01], for which the AC50 came out at 6.68 µM.

For the compound `CCc1ccc2c(c1)cc(CN(/C(S)=N/c1cccc(C)c1)C1CC1)c1nnnn12` [MLS000556704-01], the AC50 turned out to be 3.35 µM.

`COc1ccc(-c2ccccc2NC(=O)C2CCCN(Cc3c(O)cccc3OC)C2)cc1` (centres unmarked) [NCGC00425458-01]: the AC50 was 2.11 µM.

Regarding `CCOc1cc(C2CC(=O)NC3=C2C(=O)C(C(=O)OC)C(C)C3)cc(Br)c1O` (centres unmarked) [MLS000090952-01], the AC50 was determined as 6.68 µM.

Regarding `OC(CNC1CCCc2ccccc21)COc1c(Cl)cccc1Cl` (centres unmarked) [MLS000334339-01], the concentration at half-maximal activity (AC50) came to 1.68 µM.

Regarding `COc1cc(C2Nc3ccc4ccccc4c3C3=C2C(=O)CC(C)(C)C3)ccc1OC(C)C(=O)O` (centres unmarked) [MLS001197433-01], the concentration at half-maximal activity (AC50) was 6.68 µM.

For the compound `CC(=O)Nc1cc(-c2cc(C(=O)NCCc3c[nH]cn3)c3c(c2)N(C)CCO3)ccn1` [NCGC00417032-01], the half-maximal activity concentration (AC50) was 13.7 µM.

Consider `CC1=C[C@@H](CNCCN(C)C)[C@H](C(C)C)C[C@H]1Cc1nnc(C(C)(C)C)o1` [NCGC00401821-01], for which the AC50 was determined as 15.3 µM.

Consider `CC(C)CN(Cc1cc(=O)oc2cc3c(cc12)CCCC3)CC(C)C` [MLS000763058-01], for which the AC50 is 15 µM.

With `COCCOc1cc(-c2noc([C@@H]3CCCN3CC3CC3)n2)ccn1` [NCGC00394865-01], the AC50 stood at 15.3 µM.

Regarding `Cc1ccc([S+](=O)([O-])c2nc([S+](=O)([O-])c3ccccc3)sc2NCCCOC(C)C)cc1` [NCGC00116818-01], the AC50 amounted to 0.596 µM.

Take `O=C1Nc2ccccc2C12Nc1ccccc1-c1nc3ccccc3n12` (centres unmarked) [MLS000051512-01]: the AC50 is 6.68 µM.

For `CCOc1cc(CNCC(O)c2ccccc2)cc(Cl)c1OC` (centres unmarked) [MLS000676147-01], the concentration at half-maximal activity (AC50) was 3.35 µM.

`CC1=C[C@@H](CN(C)C)[C@H](C(C)C)C[C@H]1Cc1nc2cccc(C)c2[nH]1` [NCGC00393074-01]: the concentration at half-maximal activity (AC50) turned out to be 15.3 µM.

`COc1ccc(-c2n[nH]c3ncc(-c4cccnc4)nc23)cc1F` [NCGC00419143-01]: the AC50 worked out at 3.85 µM.

Regarding `Cc1ccc(N(Cc2cccs2)C(=O)C(C)Oc2ccc(Cl)c(C)c2)cc1` (centres unmarked) [NCGC00119071-01], the AC50 amounted to 7.5 µM.
